Results as given in patent publication US8507510B2, “Sulfoximine-substituted pyrimidines as CDK- and/or VEGF inhibitors, their production and use as pharmaceutical agents” (Bayer Intellectual Property GmbH, priority 2003, dated 2013).
pIC50: −log10 of the molar value.

What was measured:
VEGF-R2 = VEGF-R2 (Homo sapiens (Human), UniProt P35968); assay: VEGF receptor-2 kinase assay; format: biochemical; conditions: poly-(Glu4Tyr) substrate, 8 μmol ATP
Method: Recombinant VEGF receptor tyrosine kinase-2 was purified as a GST fusion protein from baculovirus-infected insect cells (Sf9). Poly-(Glu4Tyr), which was used as a kinase substrate, was purchased by the Sigma Company.
VEGF receptor tyrosine kinase (90 ng/measuring point) was incubated for 10 minutes at 22° C. in the presence of various concentrations of test substances (0 μm, as well as within the range of 0.001-30 μm) in 30 μl of assay buffer [40 mmol of Tris/HCl, […], 10 mmol of MgCl2, 1 mmol of MnCl2, 3 μmol of Na ortho-vanadate, 1.0 mmol of dithiothreitol, 8 μmol of adenosine trisphosphate (ATP), 27 μg/measuring point of poly-(Glu4Tyr), 0.2 μCi/measuring point of 33P-gamma ATP, 1% dimethyl sulfoxide]. The reaction was stopped by adding EDTA solution (250 mmol, pH 7.0, 10 μl/measuring point).
(§1) From each reaction batch, 10 μl was applied to P30 filter strips (Wallac Company), and non-incorporated 33P-ATP was removed by subjecting the filter strips to three washing cycles for 10 minutes each in 0.5% phosphoric acid. After the filter strips were dried for one hour at 70° C., the filter strips were covered with scintillator strips (MeltiLex™ A, Wallac Company) and baked for one hour at 90° C. The amount of incorporated 33P (substrate phosphorylation) was determined by scintillation measurement in a gamma-radiation measuring device (Wallac).

H460 = assay: Proliferation assay, H460; format: cell-based, human; conditions: Homo sapiens, NCI-H460, 96 h, H460 cells, 4 days, crystal violet
From the text: (§2) Cultivated human tumor cells (MCF7, […] human breast cancer cells, related to ATCC HTB22; NCI-H460, human non-small-cell lung cancer cells, ATCC HTB-177, HCT 116, human colon cancer cells, ATCC CCL-247; DU 145, hormone-independent human prostate cancer cells, ATCC HTB-81; MaTu-MDR, hormone-independent, multiple pharmaceutical agent-resistant human breast cancer cells, EPO-GmbH, Berlin) were flattened out at a density of about 5000 cells/measuring point, depending on the growth rate of the respective cells, in a 96-well multititer plate in 200 μl of the corresponding growth medium. After 24 hours, the cells of one plate (zero-point plate) were colored with crystal violet (see below), while the medium of the other plates was replaced by fresh culture medium (200 μl), to which the test substances were added in various concentrations (0 μm, as well as in the range of 0.01-30 μm; the final concentration of the solvent dimethyl sulfoxide was 0.5%). The cells were incubated for 4 days in the presence of test substances. The cell proliferation was determined by coloring the cells with crystal violet: the cells were fixed by adding 20 μl/measuring point of an 11% glutaric aldehyde solution for 15 minutes at room temperature. After three washing cycles of the fixed cells with water, the plates were dried at room temperature. The cells were colored by adding 100 μl/measuring point of a 0.1% crystal violet solution (the pH was set at 3 by adding acetic acid). After three washing cycles of the colored cells with water, the plates were dried at room temperature. The dye was dissolved by adding 100 μl/measuring point of a 10% acetic acid solution. The extinction was determined by photometry at a wavelength of 595 nm The change of cell growth, in percent, was calculated by normalization of the measured values to the extinction values of the zero-point plate (=0%) and the extinction of the untreated (0 μm) cells (=100%).

MCF7 = assay: Proliferation assay, MCF7; format: cell-based, human; conditions: Homo sapiens, MCF7, 96 h, MCF7 cells, 4 days, crystal violet
From the text: as §2

DU145 = assay: Proliferation assay, DU145; format: cell-based, human; conditions: Homo sapiens, DU-145, 96 h, DU145 cells, 4 days, crystal violet
From the text: as §2

CDK1/CycB = CDK1/CycB (Homo sapiens (Human), UniProt P06493); assay: CDK1/CycB kinase assay; format: biochemical; conditions: histone IIIS substrate, 0.5 μm ATP
CDK1/CycB, sequence (P06493 whole entry, the tested form may be a part): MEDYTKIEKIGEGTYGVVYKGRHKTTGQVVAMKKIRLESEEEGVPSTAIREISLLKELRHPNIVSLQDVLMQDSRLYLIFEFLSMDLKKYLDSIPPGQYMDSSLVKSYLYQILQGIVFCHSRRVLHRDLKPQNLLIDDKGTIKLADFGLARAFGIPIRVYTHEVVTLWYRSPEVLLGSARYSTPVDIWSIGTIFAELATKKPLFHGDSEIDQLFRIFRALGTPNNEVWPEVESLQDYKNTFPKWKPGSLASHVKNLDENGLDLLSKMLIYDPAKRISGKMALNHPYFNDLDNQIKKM
CDK1/CycB, sequence (P14635 whole entry partner, the tested form may be a part): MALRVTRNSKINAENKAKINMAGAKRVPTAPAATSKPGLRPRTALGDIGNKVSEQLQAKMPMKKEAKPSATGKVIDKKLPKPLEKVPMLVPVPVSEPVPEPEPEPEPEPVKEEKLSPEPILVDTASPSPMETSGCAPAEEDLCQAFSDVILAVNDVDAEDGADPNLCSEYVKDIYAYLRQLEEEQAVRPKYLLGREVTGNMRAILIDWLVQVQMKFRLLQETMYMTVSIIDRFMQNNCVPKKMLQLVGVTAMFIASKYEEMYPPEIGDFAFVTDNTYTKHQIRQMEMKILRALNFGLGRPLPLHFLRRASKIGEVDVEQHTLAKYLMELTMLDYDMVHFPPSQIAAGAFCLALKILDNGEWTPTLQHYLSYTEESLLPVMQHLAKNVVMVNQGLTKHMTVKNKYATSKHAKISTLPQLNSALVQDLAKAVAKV
Method: Recombinant CDK1- and CycB-GST-fusion proteins, purified from baculovirus-infected insect cells (Sf9), were purchased from ProQinase GmbH, Freiburg. Histone IIIS, used as a kinase substrate, is available commercially from the Sigma Company.
The reaction was stopped by adding EDTA solution (250 mmol, pH 8.0, 14 μl/measuring point).
as §1

MaTu-ADR = assay: Proliferation assay, MaTu-ADR; format: cell-based, human; conditions: Homo sapiens, 96 h, MaTu-ADR cells, 4 days, crystal violet
From the text: as §2

VEGF-R2, sequence (P35968 20-1356, species assumed): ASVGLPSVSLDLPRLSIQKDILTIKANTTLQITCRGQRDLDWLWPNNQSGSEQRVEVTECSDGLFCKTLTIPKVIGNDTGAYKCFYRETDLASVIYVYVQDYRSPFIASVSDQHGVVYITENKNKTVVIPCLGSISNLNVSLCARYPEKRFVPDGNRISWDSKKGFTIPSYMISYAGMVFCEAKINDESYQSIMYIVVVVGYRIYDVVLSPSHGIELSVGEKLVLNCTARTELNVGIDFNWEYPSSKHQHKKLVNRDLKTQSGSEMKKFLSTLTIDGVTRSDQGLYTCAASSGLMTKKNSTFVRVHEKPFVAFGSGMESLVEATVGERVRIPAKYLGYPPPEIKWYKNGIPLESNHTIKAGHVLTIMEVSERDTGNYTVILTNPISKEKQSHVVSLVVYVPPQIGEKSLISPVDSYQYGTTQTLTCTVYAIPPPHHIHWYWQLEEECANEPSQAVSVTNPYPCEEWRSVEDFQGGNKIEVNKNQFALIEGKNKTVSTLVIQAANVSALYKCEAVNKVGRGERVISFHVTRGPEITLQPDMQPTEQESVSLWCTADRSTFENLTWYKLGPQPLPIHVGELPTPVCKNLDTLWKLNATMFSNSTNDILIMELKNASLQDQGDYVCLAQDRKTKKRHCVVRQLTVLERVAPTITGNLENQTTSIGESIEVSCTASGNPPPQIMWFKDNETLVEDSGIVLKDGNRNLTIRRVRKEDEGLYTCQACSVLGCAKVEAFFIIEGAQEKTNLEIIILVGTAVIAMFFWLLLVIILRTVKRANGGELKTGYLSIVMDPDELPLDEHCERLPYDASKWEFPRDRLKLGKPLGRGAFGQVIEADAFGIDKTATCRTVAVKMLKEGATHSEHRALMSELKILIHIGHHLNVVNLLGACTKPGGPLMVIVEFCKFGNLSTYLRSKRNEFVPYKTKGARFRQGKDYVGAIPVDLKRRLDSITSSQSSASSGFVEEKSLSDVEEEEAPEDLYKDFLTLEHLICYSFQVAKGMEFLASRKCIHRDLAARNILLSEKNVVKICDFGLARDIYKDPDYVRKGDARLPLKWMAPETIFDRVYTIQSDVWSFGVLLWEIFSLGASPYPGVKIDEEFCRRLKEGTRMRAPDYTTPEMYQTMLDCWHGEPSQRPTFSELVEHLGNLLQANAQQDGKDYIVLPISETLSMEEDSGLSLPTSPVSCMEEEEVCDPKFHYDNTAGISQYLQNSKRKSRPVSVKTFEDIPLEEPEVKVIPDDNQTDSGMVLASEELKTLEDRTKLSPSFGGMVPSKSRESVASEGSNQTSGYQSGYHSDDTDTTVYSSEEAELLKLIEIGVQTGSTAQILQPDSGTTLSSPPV

For `C[C@@H](Nc1nc(Nc2ccc(S(=N)(=O)CCO)cc2)ncc1Br)C(C)(C)O` (single isomer, unassigned) [Example 1.15], the pIC50 (VEGF-R2) was 7.23, the pIC50 (H460) was 6.70 and the pIC50 (MCF7) was 6.74. It also gave a pIC50 (DU145) of 6.52, a pIC50 (CDK1/CycB) of 7.60 and a pIC50 (MaTu-ADR) of 6.52.
